Legend:
Assay in all cases: DSF Tm panel
Type in all cases: binding
Settings in all cases: 10 μM compound
STK3 (STK3A) = molecular target: T1, STK3 (STK3A) (Homo sapiens, UniProt Q13188)
T1 construct: purchased in-house DSF kinase panel (SGC-style construct names; the trailing letter is the construct ID)
T1 sequence (Q13188 16-313): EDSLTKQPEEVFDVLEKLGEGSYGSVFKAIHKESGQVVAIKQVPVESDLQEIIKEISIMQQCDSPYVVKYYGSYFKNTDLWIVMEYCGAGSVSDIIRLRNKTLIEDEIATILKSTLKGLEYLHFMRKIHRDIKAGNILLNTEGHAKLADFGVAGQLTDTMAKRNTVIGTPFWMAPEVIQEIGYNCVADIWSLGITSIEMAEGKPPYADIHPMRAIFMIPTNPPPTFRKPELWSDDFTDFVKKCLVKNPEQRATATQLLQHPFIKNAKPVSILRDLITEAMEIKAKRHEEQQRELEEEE

FGFR2A = molecular target: T2, FGFR2A (Homo sapiens, UniProt P21802)
T2 construct: purchased in-house DSF kinase panel (SGC-style construct names; the trailing letter is the construct ID)

MAPK14A = molecular target: T3, MAPK14A (Homo sapiens, UniProt Q16539)
T3 construct: purchased in-house DSF kinase panel (SGC-style construct names; the trailing letter is the construct ID)

EPHB3A = molecular target: T4, EPHB3A (Homo sapiens, UniProt P54753)
T4 construct: purchased in-house DSF kinase panel (SGC-style construct names; the trailing letter is the construct ID)
T4 sequence (P54753 34-998): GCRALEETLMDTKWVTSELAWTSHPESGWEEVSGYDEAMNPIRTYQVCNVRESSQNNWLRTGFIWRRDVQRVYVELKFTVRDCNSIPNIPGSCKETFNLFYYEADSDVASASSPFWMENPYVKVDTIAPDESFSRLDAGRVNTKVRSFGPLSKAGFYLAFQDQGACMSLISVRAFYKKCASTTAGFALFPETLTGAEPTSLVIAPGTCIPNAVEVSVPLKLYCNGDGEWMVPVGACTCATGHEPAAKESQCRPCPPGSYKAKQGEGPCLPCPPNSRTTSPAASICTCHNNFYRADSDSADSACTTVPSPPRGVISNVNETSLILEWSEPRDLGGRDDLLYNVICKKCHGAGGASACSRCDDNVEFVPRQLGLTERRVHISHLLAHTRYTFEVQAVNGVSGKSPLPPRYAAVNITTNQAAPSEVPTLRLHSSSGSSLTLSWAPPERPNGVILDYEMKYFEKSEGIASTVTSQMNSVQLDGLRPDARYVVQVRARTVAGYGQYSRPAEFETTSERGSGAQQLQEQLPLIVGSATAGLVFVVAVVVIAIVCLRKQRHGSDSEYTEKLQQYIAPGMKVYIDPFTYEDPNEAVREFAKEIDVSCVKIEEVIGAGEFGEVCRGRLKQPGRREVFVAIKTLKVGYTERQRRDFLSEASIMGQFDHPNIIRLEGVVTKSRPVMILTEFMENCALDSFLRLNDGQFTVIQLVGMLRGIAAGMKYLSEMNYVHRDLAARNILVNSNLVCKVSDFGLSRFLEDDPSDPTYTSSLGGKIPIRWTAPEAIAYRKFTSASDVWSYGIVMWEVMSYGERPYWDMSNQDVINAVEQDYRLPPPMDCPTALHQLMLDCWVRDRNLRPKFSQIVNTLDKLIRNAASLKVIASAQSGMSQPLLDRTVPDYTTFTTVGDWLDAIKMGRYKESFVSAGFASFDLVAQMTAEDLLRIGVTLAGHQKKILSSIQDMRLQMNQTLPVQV

MAPK10A = molecular target: T5, MAPK10A (Homo sapiens, UniProt P53779)
T5 construct: purchased in-house DSF kinase panel (SGC-style construct names; the trailing letter is the construct ID)

BRAFA = molecular target: T6, BRAFA (Homo sapiens, UniProt P15056)
T6 construct: purchased in-house DSF kinase panel (SGC-style construct names; the trailing letter is the construct ID)

CAMK2BA = molecular target: T7, CAMK2BA (Homo sapiens, UniProt Q13554)
T7 construct: purchased in-house DSF kinase panel (SGC-style construct names; the trailing letter is the construct ID)

CDKL1A = molecular target: T8, CDKL1A (Homo sapiens, UniProt Q00532)
T8 construct: purchased in-house DSF kinase panel (SGC-style construct names; the trailing letter is the construct ID)

GPRK5A = molecular target: T9, GPRK5A (Homo sapiens, UniProt P34947)
T9 construct: purchased in-house DSF kinase panel (SGC-style construct names; the trailing letter is the construct ID)

MARK4A = molecular target: T10, MARK4A (Homo sapiens, UniProt Q96L34)
T10 construct: purchased in-house DSF kinase panel (SGC-style construct names; the trailing letter is the construct ID)

GSG2A = molecular target: T11, GSG2A (Homo sapiens, UniProt Q8TF76)
T11 construct: purchased in-house DSF kinase panel (SGC-style construct names; the trailing letter is the construct ID)
T11 sequence (Q8TF76 465-798): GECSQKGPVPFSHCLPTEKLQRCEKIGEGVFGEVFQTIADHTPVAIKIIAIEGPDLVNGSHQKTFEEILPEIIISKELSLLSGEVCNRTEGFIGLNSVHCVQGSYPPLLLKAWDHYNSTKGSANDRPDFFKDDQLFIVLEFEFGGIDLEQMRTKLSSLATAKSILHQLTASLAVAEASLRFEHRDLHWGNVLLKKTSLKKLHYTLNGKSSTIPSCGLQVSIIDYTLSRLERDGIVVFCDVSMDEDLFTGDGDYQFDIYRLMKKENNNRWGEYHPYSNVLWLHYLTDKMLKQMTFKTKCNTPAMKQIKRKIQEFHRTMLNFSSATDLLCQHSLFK

CLK1A = molecular target: T12, CLK1A (Homo sapiens, UniProt P49759)
T12 construct: purchased in-house DSF kinase panel (SGC-style construct names; the trailing letter is the construct ID)

STK39A = molecular target: T13, STK39A (Homo sapiens, UniProt Q9UEW8)
T13 construct: purchased in-house DSF kinase panel (SGC-style construct names; the trailing letter is the construct ID)

MST4A = molecular target: T14, MST4A (Homo sapiens, UniProt Q9P289)
T14 construct: purchased in-house DSF kinase panel (SGC-style construct names; the trailing letter is the construct ID)

DYRK2A = molecular target: T15, DYRK2A (Homo sapiens, UniProt Q92630)
T15 construct: purchased in-house DSF kinase panel (SGC-style construct names; the trailing letter is the construct ID)
T15 sequence (Q92630 1-601): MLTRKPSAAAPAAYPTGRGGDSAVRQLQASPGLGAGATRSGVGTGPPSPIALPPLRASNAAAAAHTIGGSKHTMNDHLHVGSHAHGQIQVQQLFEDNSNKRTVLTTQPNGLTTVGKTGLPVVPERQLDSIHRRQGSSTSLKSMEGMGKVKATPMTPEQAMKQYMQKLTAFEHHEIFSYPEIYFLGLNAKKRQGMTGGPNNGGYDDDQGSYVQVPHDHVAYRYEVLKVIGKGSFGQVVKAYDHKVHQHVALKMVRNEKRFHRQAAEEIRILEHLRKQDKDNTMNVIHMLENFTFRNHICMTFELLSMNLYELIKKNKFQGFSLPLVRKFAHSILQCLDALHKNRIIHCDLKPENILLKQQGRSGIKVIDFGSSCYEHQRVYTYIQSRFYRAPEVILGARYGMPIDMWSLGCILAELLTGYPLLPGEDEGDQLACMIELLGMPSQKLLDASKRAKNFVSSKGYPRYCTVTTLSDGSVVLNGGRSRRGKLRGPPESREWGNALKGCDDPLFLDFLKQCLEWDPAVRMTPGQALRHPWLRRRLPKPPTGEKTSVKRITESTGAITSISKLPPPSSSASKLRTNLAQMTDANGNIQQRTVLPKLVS

T10 sequence (Q96L34 59-310): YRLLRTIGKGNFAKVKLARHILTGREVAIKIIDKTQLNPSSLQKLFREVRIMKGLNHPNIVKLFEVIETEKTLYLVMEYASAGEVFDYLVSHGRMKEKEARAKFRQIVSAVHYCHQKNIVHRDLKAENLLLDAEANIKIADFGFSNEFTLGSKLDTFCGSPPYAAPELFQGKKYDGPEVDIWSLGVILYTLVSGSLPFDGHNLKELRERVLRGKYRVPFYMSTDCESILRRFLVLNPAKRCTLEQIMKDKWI
T14 sequence (Q9P289 1-300): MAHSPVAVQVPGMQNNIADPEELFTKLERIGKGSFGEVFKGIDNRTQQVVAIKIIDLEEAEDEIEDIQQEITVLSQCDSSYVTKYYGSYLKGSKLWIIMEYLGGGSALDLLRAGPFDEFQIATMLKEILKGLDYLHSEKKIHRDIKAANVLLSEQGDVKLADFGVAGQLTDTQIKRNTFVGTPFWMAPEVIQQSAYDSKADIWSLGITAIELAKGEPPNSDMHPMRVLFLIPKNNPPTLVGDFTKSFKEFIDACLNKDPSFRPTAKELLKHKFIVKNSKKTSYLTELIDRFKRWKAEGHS
T8 sequence (Q00532 1-303): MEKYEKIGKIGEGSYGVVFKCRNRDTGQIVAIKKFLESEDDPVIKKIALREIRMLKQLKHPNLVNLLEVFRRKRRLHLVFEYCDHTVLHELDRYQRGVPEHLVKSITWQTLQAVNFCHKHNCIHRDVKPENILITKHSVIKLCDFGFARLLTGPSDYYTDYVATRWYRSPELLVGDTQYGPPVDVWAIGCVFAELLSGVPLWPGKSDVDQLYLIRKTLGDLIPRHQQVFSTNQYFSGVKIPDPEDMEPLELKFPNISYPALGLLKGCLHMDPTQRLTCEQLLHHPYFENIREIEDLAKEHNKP
T7 sequence (Q13554 11-303): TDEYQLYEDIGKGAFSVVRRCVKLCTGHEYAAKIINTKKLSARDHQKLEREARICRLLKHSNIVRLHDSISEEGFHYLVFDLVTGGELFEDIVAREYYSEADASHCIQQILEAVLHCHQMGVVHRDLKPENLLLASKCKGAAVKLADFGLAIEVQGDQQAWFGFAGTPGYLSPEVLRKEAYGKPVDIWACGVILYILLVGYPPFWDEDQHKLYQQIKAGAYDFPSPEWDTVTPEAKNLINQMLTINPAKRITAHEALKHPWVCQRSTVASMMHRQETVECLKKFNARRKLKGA
T2 sequence (P21802 458-770): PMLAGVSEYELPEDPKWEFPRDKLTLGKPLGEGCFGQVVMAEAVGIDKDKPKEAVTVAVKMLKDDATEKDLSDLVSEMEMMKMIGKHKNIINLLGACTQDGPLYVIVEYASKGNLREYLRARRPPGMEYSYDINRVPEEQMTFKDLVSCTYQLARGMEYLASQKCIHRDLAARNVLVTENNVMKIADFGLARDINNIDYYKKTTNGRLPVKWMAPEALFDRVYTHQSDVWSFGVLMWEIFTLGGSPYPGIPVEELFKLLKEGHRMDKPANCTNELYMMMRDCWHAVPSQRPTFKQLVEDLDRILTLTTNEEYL
T3 sequence (Q16539 whole entry): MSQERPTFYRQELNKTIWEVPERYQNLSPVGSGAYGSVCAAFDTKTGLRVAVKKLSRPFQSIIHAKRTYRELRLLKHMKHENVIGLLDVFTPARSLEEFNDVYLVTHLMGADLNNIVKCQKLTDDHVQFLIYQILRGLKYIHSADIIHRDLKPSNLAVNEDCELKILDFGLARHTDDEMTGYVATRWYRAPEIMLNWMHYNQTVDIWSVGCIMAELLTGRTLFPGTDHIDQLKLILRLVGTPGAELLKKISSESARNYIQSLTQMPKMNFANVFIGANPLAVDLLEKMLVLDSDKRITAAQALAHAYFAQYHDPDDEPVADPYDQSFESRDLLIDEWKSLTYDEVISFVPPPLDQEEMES
T12 sequence (P49759 148-484): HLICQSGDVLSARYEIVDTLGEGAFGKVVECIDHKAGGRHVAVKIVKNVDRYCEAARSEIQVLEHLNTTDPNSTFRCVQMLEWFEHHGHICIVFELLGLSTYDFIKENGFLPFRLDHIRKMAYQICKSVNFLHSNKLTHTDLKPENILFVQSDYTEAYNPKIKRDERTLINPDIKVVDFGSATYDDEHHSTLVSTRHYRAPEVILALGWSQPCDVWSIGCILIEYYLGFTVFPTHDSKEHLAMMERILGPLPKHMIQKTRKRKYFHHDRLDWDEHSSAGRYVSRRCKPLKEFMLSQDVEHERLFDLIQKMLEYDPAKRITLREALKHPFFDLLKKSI
T5 sequence (P53779 39-402): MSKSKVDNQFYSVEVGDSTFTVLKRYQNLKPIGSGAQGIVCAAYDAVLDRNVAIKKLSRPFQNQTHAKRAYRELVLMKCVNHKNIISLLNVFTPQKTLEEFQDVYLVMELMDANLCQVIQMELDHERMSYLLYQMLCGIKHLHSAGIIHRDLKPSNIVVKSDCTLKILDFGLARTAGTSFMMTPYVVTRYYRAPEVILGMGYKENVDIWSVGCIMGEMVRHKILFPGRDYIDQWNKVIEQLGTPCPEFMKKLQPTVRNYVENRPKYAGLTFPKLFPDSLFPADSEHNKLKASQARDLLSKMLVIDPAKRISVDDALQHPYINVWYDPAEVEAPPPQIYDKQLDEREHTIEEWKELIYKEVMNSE
T9 sequence (P34947 186-514): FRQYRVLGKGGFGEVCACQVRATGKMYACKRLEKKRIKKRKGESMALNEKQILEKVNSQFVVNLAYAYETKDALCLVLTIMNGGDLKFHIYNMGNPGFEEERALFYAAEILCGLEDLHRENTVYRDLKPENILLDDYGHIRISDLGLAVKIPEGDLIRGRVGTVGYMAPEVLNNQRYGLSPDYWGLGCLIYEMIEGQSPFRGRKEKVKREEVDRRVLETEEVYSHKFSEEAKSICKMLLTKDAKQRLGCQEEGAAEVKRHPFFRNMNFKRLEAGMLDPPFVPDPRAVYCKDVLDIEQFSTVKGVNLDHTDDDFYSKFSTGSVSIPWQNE
T6 sequence (P15056 448-723): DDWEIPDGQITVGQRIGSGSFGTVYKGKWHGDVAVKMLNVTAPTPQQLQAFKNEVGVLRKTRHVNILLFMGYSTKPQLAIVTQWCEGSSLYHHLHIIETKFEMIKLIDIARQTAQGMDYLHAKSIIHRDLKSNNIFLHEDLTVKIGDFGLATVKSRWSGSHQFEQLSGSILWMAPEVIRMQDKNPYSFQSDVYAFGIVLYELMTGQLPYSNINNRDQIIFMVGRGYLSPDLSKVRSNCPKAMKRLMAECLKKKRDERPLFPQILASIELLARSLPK

O=C(NCc1ccc(Cl)cc1F)Nc1ccc2cc1OCCOCCNc1ccn3ncc-2c3n1 [compound 21]
ΔTm at 10 µM (STK3 (STK3A)): 6.9 °C
ΔTm at 10 µM (FGFR2A): 2.3 °C
ΔTm at 10 µM (MAPK14A): 0.5 °C
ΔTm at 10 µM (EPHB3A): -0.4 °C
ΔTm at 10 µM (MAPK10A): 1.4 °C
ΔTm at 10 µM (BRAFA): 0.5 °C
ΔTm at 10 µM (CAMK2BA): 0.8 °C
ΔTm at 10 µM (CDKL1A): 0 °C
ΔTm at 10 µM (GPRK5A): 1.4 °C
ΔTm at 10 µM (MARK4A): 2.6 °C
ΔTm at 10 µM (GSG2A): 0.1 °C
ΔTm at 10 µM (CLK1A): 2.8 °C
ΔTm at 10 µM (STK39A): 2.4 °C
ΔTm at 10 µM (MST4A): 1.1 °C
ΔTm at 10 µM (DYRK2A): 0.7 °C

Cc1cc(Cl)ccc1CNC(=O)Nc1ccc2cc1OCCOCCNc1ccn3ncc-2c3n1 [compound 23]
ΔTm at 10 µM (STK3 (STK3A)): 9.1 °C
ΔTm at 10 µM (FGFR2A): 1.9 °C
ΔTm at 10 µM (MAPK14A): 0.3 °C
ΔTm at 10 µM (EPHB3A): 0.9 °C
ΔTm at 10 µM (MAPK10A): 1 °C
ΔTm at 10 µM (BRAFA): 0.5 °C
ΔTm at 10 µM (CAMK2BA): 0.9 °C
ΔTm at 10 µM (CDKL1A): 0.4 °C
ΔTm at 10 µM (GPRK5A): 0.8 °C
ΔTm at 10 µM (MARK4A): 1.5 °C
ΔTm at 10 µM (GSG2A): -0.1 °C
ΔTm at 10 µM (CLK1A): 2.6 °C
ΔTm at 10 µM (STK39A): 2.5 °C
ΔTm at 10 µM (MST4A): 2.1 °C
ΔTm at 10 µM (DYRK2A): 0.8 °C

Cc1cc(Br)ccc1CNC(=O)Nc1ccc2cc1OCCOCCNc1ccn3ncc-2c3n1 [compound 24]
ΔTm at 10 µM (STK3 (STK3A)): 3.8 °C
ΔTm at 10 µM (FGFR2A): 2.2 °C
ΔTm at 10 µM (MAPK14A): 2 °C
ΔTm at 10 µM (EPHB3A): 0.7 °C
ΔTm at 10 µM (MAPK10A): 0.5 °C
ΔTm at 10 µM (BRAFA): -0.3 °C
ΔTm at 10 µM (CAMK2BA): -0.2 °C
ΔTm at 10 µM (CDKL1A): 0.5 °C
ΔTm at 10 µM (GPRK5A): 0 °C
ΔTm at 10 µM (MARK4A): 1.9 °C
ΔTm at 10 µM (GSG2A): 0 °C
ΔTm at 10 µM (CLK1A): 1 °C
ΔTm at 10 µM (STK39A): 1 °C
ΔTm at 10 µM (MST4A): 1.2 °C
ΔTm at 10 µM (DYRK2A): 0.5 °C

Cc1ccc(F)cc1CNC(=O)Nc1ccc2cc1OCCOCCNc1ccn3ncc-2c3n1 [compound 26]
ΔTm at 10 µM (STK3 (STK3A)): 4.1 °C
ΔTm at 10 µM (FGFR2A): 3.5 °C
ΔTm at 10 µM (MAPK14A): 2.7 °C
ΔTm at 10 µM (EPHB3A): 0.9 °C
ΔTm at 10 µM (MAPK10A): 0.5 °C
ΔTm at 10 µM (BRAFA): -0.6 °C
ΔTm at 10 µM (CAMK2BA): 0 °C
ΔTm at 10 µM (CDKL1A): 0.5 °C
ΔTm at 10 µM (GPRK5A): 0.1 °C
ΔTm at 10 µM (MARK4A): 1.9 °C
ΔTm at 10 µM (GSG2A): 0.6 °C
ΔTm at 10 µM (CLK1A): 2.1 °C
ΔTm at 10 µM (STK39A): 0.9 °C
ΔTm at 10 µM (MST4A): 0.8 °C
ΔTm at 10 µM (DYRK2A): 2.3 °C

O=C(NCc1ccccc1C(F)(F)F)Nc1ccc2cc1OCCOCCNc1ccn3ncc-2c3n1 [compound 27]
ΔTm at 10 µM (STK3 (STK3A)): 4.7 °C
ΔTm at 10 µM (FGFR2A): 2.7 °C
ΔTm at 10 µM (MAPK14A): 2.6 °C
ΔTm at 10 µM (EPHB3A): 1.4 °C
ΔTm at 10 µM (MAPK10A): 0.7 °C
ΔTm at 10 µM (BRAFA): -0.4 °C
ΔTm at 10 µM (CAMK2BA): -0.1 °C
ΔTm at 10 µM (CDKL1A): 0.4 °C
ΔTm at 10 µM (GPRK5A): 0.2 °C
ΔTm at 10 µM (MARK4A): 2.7 °C
ΔTm at 10 µM (GSG2A): 0.7 °C
ΔTm at 10 µM (CLK1A): 2.3 °C
ΔTm at 10 µM (STK39A): 1.5 °C
ΔTm at 10 µM (MST4A): 1.9 °C
ΔTm at 10 µM (DYRK2A): 0.8 °C

O=C(NCc1ccc(C(F)(F)F)cc1)Nc1ccc2cc1OCCOCCNc1ccn3ncc-2c3n1 [compound 28]
ΔTm at 10 µM (STK3 (STK3A)): 5.1 °C
ΔTm at 10 µM (FGFR2A): 2.3 °C
ΔTm at 10 µM (MAPK14A): 3.1 °C
ΔTm at 10 µM (EPHB3A): 1.4 °C
ΔTm at 10 µM (MAPK10A): 1.1 °C
ΔTm at 10 µM (BRAFA): 0 °C
ΔTm at 10 µM (CAMK2BA): 0.3 °C
ΔTm at 10 µM (CDKL1A): 0.6 °C
ΔTm at 10 µM (GPRK5A): 0.7 °C
ΔTm at 10 µM (MARK4A): 2.7 °C
ΔTm at 10 µM (GSG2A): 0.9 °C
ΔTm at 10 µM (CLK1A): 2.3 °C
ΔTm at 10 µM (STK39A): 1.3 °C
ΔTm at 10 µM (MST4A): 2.1 °C
ΔTm at 10 µM (DYRK2A): 1.2 °C

From paper PMC12621043, “Un-LOK-ing a New Approach for Conformational Selective Targeting of STK10 (LOK)” (ACS Medicinal Chemistry Letters, 2025)
